Assay results as given in patent US9259470B2, “Serine/threonine kinase inhibitors” (Array BioPharma Inc., priority 2012, dated 2016).

System: PMA-stimulated P90RSK(Ser380) phosphorylation in HepG2 cells
Experiment: Cellular P90RSK(Ser380) Phosphorylation Assay (Biological Example 2)
Assay type: cell-based
Details: read-out: Biological Example 2 IC50, 1.5 hours compound incubation, PMA 100 ng/mL 30 minutes, normalized to GAPDH, single assay or mean of multiple assays
Method: Inhibition of PMA-stimulated P90RSK(Ser380) phosphorylation was determined by the following in vitro cellular mechanistic assay, which comprises incubating cells with a compound for 1.5 hours and quantifying fluorescent pP90RSK(Ser380) signal on fixed cells and normalizing to GAPDH signal.
HepG2 cells were obtained from ATCC and grown in DMEM supplemented with 10% fetal bovine serum. Cells were plated in 96-well plates at 35,000 cells/well and allowed to attach overnight at 37° C./5% CO2. Diluted compounds were then added at a final concentration of 0.5% DMSO. After 1.5 hours compound incubation, cells were stimulated with the addition of phorbol 12-myristate 13-acetate (“PMA”) at a final concentration of 100 ng/mL; the PMA stimulation was a 30-minute incubation at 37° C./5% CO2. After the 30-minute PMA stimulation, cells were washed with phosphate buffered saline (“PBS”) and fixed in 3.7% formaldehyde in PBS at room temperature for 15-20 minutes. This was followed by another wash in PBS and then permeabilization in 100% MeOH at room temperature for 10-15 minutes. Following the permeabilization incubation, cells were washed in PBS/0.05% Tween-20, followed by a block in Odyssey blocking buffer (LI-COR Biosciences) for at least 1 hour. […] Cells were then washed and analyzed for fluorescence at both wavelengths using the Odyssey Infrared Imaging System (LI-COR Biosciences). […]

Cc1cc(Nc2nccc(-c3ccn([C@H](CO)c4ccc(Cl)c(F)c4)c(=O)c3)n2)n(C)n1 [Example 167, (S)-1-(1-(4-chloro-3-fluorophenyl)-2-hydroxyethyl)-4-(2-((1,3-dimethyl-1H-pyrazol-5-yl)amino)pyrimidin-4-yl)pyridin-2(1H)-one]
IC50: 100 nM
